Assay results reported in US20230076733A1, “Combination Therapy” (AGENCY FOR SCIENCE, TECHNOLOGY AND RESEARCH, priority 2020, published 2023).
Where “and” joins values, the source holds several entries; their conditions need not be identical. Equal values may be shown once.

Tests used:
Type in all cases: cell-based
HPAF-II cells = assay: soft agar colony formation assay, HPAF-II cells; conditions: for Colony count: HPAF-II, duplicate wells
Method: (§1) The IC50 and EC50 values for each combination partner (a) and (b) with the specific cell lines are determined from the response plot. A dose-response assay for each combination partner and the combination at different concentrations based on the IC50 values of each combination partner was performed. Computed EC50-EC95 values were then generated by a software (as disclosed herein) based on the drug concentration and the respective colony growth numbers.
(§2) 6. Cell lines used and number of cells seeded per well
(§3) (1) Base Layer—0.6% Agar per 300 μL per well.
(§4) Microwave the agar for 1-2 min so that it is completely melted. Add 5.4 ml of the melted agar into 21.6 ml of pre-warmed media (All media and agar preparation is made in excess for 2.5 plates). Aliquot 300 μl of the suspension into each well, avoiding the first and last columns of the plates. Fill the first and last columns of wells with 500 μl of sterile water or phosphate buffered saline. Incubate the plates in 37° C. incubator for 45 min-1 hr to allow agar to solidify.
(§5) (2) Middle Layer— 0.3% Agar plus corresponding number of cells per well
(§6) Trypsinize the adherent cells and suspend them in 5 ml of media. Determine the number of cells in the suspension and calculate the volume of cell suspension required for seeding. Mix the agar and media together first, excluding the volume of cell suspension. Add the cell suspension last into the mixture. Mix well and aliquot 250 μl into each well containing the base layer. Incubate the plates in a 37° C. incubator for 1-1.5 hrs to allow the agar to solidify.
(§7) Prepare the required concentration of compounds based on the IC50 values of each drug.
(§8) (Pre-determine the IC50 values for each drug with the corresponding cell-line using a dose-response assay)
(§9) Row A& B: Aliquot 250 μl of diluted Drug A per well
(§10) Row C&D: Aliquot 250 μl of diluted Drug B per well
(§11) Row E& F: Aliquot 250 μl of diluted Drug A and B mixed at 1:1 ratio for each well
(§12) Assay Results Analysis Method • 1. Score the colonies after 2 to 3 weeks depending on the colony forming status for different cell line. • 2. Before scoring the colonies, add 35 μl MTT (5 mg/ml) to the wells with cells and incubate at 37° C. for 2-3 hrs depending on the intensity of colour development. • 3. Once the colonies are stained, count the total number of colonies formed using the Oxford Optronix GelCount® instrument. • 4. Average the total number of colonies obtained for each drug dose point and represent it as a fraction over the control. This represents the fraction of colony growth. […] Incorporate the fraction of inhibition and the corresponding dose values into the Chou Talalay Software available online (http://www.combosyn.com/) to obtain the combination index values. • 6. The combination index values will give an indication as to whether the combined drugs are synergistic, antagonistic or additive in the treated cells, as shown in Table 2 below.
FIG. 4 illustrates of a dose-response assay plate containing HPAF-II cells (Test 1) after testing compounds at different concentrations based on the IC50 values of each compound. HPAF-II is a cell line established from pancreatic ductal adenocarcinoma (pancreatic cancer).

TFK-1 cells = assay: soft agar colony formation assay, TFK-1 cells; conditions: for Colony count: duplicate wells; for IC50: TFK-1 cells, pre-determined by dose-response assay
Method: as §1, §2, §3, §4, §5, §6, §7, §8, §9, §10, §11, §12
FIG. 10 illustrates a dose-response assay plate containing TFK-1 cells (Test 1) after testing compounds at different concentrations based on the IC50 values of each compound. TFK-1 is a cell line established from cholangiocarcinoma (bile duct adenocarcinoma).

EGI-1 cells = assay: soft agar colony formation assay, EGI-1 cells; conditions: for Colony count: duplicate wells; for IC50: EGI-1 cells, pre-determined by dose-response assay
Method: as §1, §2, §3, §4, §5, §6, §7, §8, §9, §10, §11, §12
FIG. 2 illustrates a dose-response assay plate containing EGI-1 cells (Test 1) after testing compounds at different concentrations based on the IC50 values of each compound. EGI-1 is a cell line established from cholangiocarcinoma (bile duct adenocarcinoma).

[1] = Test 1, 0.25x IC50: dose Olaparib 9.7975, Ex 1 0,001929, combination both 1:1
[2] = Test 1, 0.5x IC50: dose Olaparib 19.535, Ex 1 0.003883, combination both 1:1
[3] = Test 1, 1x IC50: dose Olaparib 39.19, Ex 1 0,007577, combination both 1:1
[4] = Test 1, 2x IC50: dose Olaparib 78.38, Ex 1 0.015354, combination both 1:1
[5] = Test 1, 4x IC50: dose Olaparib 156.76, Ex 1 0.030707, combination both 1:1
[6] = Test 2, 0.25x IC50: dose Olaparib 9.7975, Ex 1 0.001929, combination both 1:1
[7] = Test 2, 0.5x IC50: dose Olaparib 13.595, Ex 1 0.003838, combination both 1:1
[8] = Test 2, 1x IC50: dose Olaparib 39.19, Ex 1 0.007677, combination both 1:1
[9] = Test 2, 2x IC50: dose Olaparib 78.38, Ex 1 0.015354, combination both 1:1
[10] = Test 2, 4x IC50: dose Olaparib 156.76, Ex 1 0.030707, combination both 1:1
[11] = TFK-1, Test 1, 0.25x IC50: dose Olaparib 4.5, Ex 1 3, combination both 1:1
[12] = TFK-1, Test 1, 0.5x IC50: dose Olaparib 9, Ex 1 6, combination both 1:1
[13] = TFK-1, Test 1, 1x IC50: dose Olaparib 18, combination both 1:1
[14] = TFK-1, Test 1, 2x IC50: dose Olaparib 36, Ex 1 24, combination both 1:1
[15] = TFK-1, Test 1, 4x IC50: dose Olaparib 72, Ex 1 48, combination both 1:1
[16] = TFK-1, Test 2, 0.25x IC50: dose Olaparib 4.5, Ex 1 3, combination both 1:1
[17] = TFK-1, Test 2, 0.5x IC50: dose Olaparib 9, Ex 1 6, combination both 1:1
[18] = TFK-1, Test 2, 1x IC50: dose Olaparib 18, combination both 1:1
[19] = TFK-1, Test 2, 2x IC50: dose Olaparib 36, Ex 1 24, combination both 1:1
[20] = TFK-1, Test 2, 4x IC50: dose Olaparib 72, Ex 1 48, combination both 1:1
[21] = EGI-1, Test 1, 0.25x IC50: dose Olaparib 2.16362, Ex 1 0.00687, combination both 1:1
[22] = EGI-1, Test 1, 0.5x IC50: dose Olaparib 4.32725, Ex 1 0.01375, combination both 1:1
[23] = EGI-1, Test 1, 1x IC50: dose Olaparib 8.6545, Ex 1 0.0275, combination both 1:1
[24] = EGI-1, Test 1, 2x IC50: dose Olaparib 17.309, Ex 1 0.055, combination both 1:1
[25] = EGI-1, Test 1, 4x IC50: dose Olaparib 34.618, Ex 1 0.11, combination both 1:1
[26] = EGI-1, Test 2, 0.25x IC50: dose Olaparib 2.16362, Ex 1 0.00687, combination both 1:1
[27] = EGI-1, Test 2, 0.5x IC50: dose Olaparib 4.32725, Ex 1 0.01375, combination both 1:1
[28] = EGI-1, Test 2, 1x IC50: dose Olaparib 8.6545, Ex 1 0.0275, combination both 1:1
[29] = EGI-1, Test 2, 2x IC50: dose Olaparib 17.309, Ex 1 0.055, combination both 1:1
[30] = EGI-1, Test 2, 4x IC50: dose Olaparib 34.618, Ex 1 0.11, combination both 1:1

| SMILES | Colony count (HPAF-II cells; [1]) | Colony count (HPAF-II cells; [2]) | Colony count (HPAF-II cells; [3]) | Colony count (HPAF-II cells; [4]) | Colony count (HPAF-II cells; [5]) | Colony count (HPAF-II cells; [6]) | Colony count (HPAF-II cells; [7]) | Colony count (HPAF-II cells; [8]) | Colony count (HPAF-II cells; [9]) | Colony count (HPAF-II cells; [10]) | Colony count (TFK-1 cells; [11]) | Colony count (TFK-1 cells; [12]) | Colony count (TFK-1 cells; [13]) | Colony count (TFK-1 cells; [14]) | Colony count (TFK-1 cells; [15]) | Colony count (TFK-1 cells; [16]) | Colony count (TFK-1 cells; [17]) | Colony count (TFK-1 cells; [18]) | Colony count (TFK-1 cells; [19]) | Colony count (TFK-1 cells; [20]) | further results |
| --- | --- | --- | --- | --- | --- | --- | --- | --- | --- | --- | --- | --- | --- | --- | --- | --- | --- | --- | --- | --- | --- |
| Cn1c(=O)c2c(ncn2CC(=O)Nc2ccc(-c3ccccc3)nn2)n(C)c1=O [Ex 1, 2-(1,3-dimethyl-2,6-dioxo-2,3-dihydro-1H-purin-7 (6H)-yl)-N-(6-phenylpyridazin-3-yl)acetamide] | 564 and 493 | 499 and 416 | 387 and 453 | 362 and 345 | 260 and 201 | 350 and 489 | 415 and 426 | 296 | 200 and 150 | 127 and 105 | 921 and 950 | 805 and 700 | 557 and 581 | 402 and 384 | 239 and 198 | 916 and 840 | 770 and 818 | 567 and 559 | 336 and 249 | 101 and 148 | IC50 (HPAF-II cells; HPAF-II cells, pre-determined by dose-response assay): 0.0077 µM; IC50 (TFK-1 cells): 12 µM; Colony count (EGI-1 cells; [21]): 1742 and 1591; Colony count (EGI-1 cells; [22]): 1351; Colony count (EGI-1 cells; [23]): 985 and 912; Colony count (EGI-1 cells; [24]): 608 and 646; Colony count (EGI-1 cells; [25]): 515 and 465; Colony count (EGI-1 cells; [26]): 1488 and 1451; Colony count (EGI-1 cells; [27]): 1242 and 1139; Colony count (EGI-1 cells; [28]): 816 and 771; Colony count (EGI-1 cells; [29]): 568 and 476; Colony count (EGI-1 cells; [30]): 434 and 412; IC50 (EGI-1 cells): 0.0275 µM |
| O=C(c1cc(Cc2n[nH]c(=O)c3ccccc23)ccc1F)N1CCN(C(=O)C2CC2)CC1 [Olaparib, reference compound] | 522 and 507 | 498 and 471 | 381 and 427 | 313 and 244 | 237 and 206 | 550 and 426 | 443 and 375 | 278 and 248 | 239 and 172 | 142 and 92 | 759 and 668 | 674 and 531 | 381 and 437 | 270 and 204 | 96 and 75 | 737 and 676 | 698 and 621 | 447 and 437 | 267 and 213 | 148 and 75 | IC50 (TFK-1 cells): 18 µM; Colony count (EGI-1 cells; [21]): 1658 and 1605; Colony count (EGI-1 cells; [22]): 1362 and 1300; Colony count (EGI-1 cells; [23]): 935 and 908; Colony count (EGI-1 cells; [24]): 454 and 489; Colony count (EGI-1 cells; [25]): 209 and 197; Colony count (EGI-1 cells; [26]): 1591 and 1717; Colony count (EGI-1 cells; [27]): 1403 and 1442; Colony count (EGI-1 cells; [28]): 856 and 1052; Colony count (EGI-1 cells; [29]): 445 and 482; Colony count (EGI-1 cells; [30]): 144 and 198; IC50 (EGI-1 cells; Homo sapiens): 8.65 µM |
